We go through 38 molecules from patent US20240294519A1, “PYRROLO[2,3-b]PYRIDINE PGDH INHIBITORS AND METHODS OF MAKING AND USING” (EPIRIUM BIO INC., priority 2021, published 2024).

One test addresses T1, 15-PGDH (Homo sapiens, UniProt P15428).
T1 construct: 15-PGDH is highly expressed in resting human lung adenocarcinoma cells (A549); endogenous in cells; host or cells: A549
T1 sequence (P15428 1-266): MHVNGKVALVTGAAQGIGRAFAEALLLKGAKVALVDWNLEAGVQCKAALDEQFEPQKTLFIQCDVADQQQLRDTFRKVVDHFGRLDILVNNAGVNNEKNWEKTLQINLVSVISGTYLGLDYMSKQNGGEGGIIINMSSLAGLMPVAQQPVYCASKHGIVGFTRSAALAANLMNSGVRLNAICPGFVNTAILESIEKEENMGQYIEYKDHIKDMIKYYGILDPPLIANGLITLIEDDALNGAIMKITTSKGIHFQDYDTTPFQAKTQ
The test can be described thus: A549 cell based assay: PGE2 in supernatant after IL-1β (HTRF). Particulars: A549 cells, fold induction of PGE2, IL-1β plus test article versus IL-1β only. Here is the method: Cell Based Assay: 15-PGDH is highly expressed in resting human lung adenocarcinoma cells (A549) (Tong et al., 2006), and this cell line was used to assess 15-PGDH inhibition by MF-300Na in vitro.
In this assay, A549 cells are treated with interleukin (IL) 1β, which induces the expression of cycloxygenase-2 and the synthesis of PGE2 (Tong et al., 2006). In the studies evaluating test articles, thirty thousand A549 cells were seeded in 100 μL F12K completed media and incubated for 24 hours at 37° C. with 5% CO2 before being serum-starved for 24 hours. On the day of the experiment, buffer was changed to complete medium, and cells were incubated for 30 minutes with compounds prior to the addition of IL-1β (final concentration of 0.1-0.25 ng/mL) overnight at 37° C. with 5% CO2. Each concentration was run in triplicate. […] The PGE2 in the supernatant was detected and quantified using a Cisbio HTRF technology (Homogeneous Time-Resolved Fluorescence) kit (62P2APEG-62P2APEH) according to the manufacturer's recommendations, quantifying the fold induction of PGE2 of cells treated with IL-1β plus test article, versus treatment with IL-1β only.

Another test deals with T2, 15-PGDH/HPGD (Homo sapiens, UniProt P15428).
T2 construct: purchased R&D System 5660-DH
T2 sequence (P15428 1-266): T1 sequence (P15428 1-266)
In words: hPGDH inhibitor screening biochemical assay. Particulars: 10 nM enzyme, 15 μM PGE2, 0.25 mM NAD, fluorescence ex/em 340/485 nm. As to the method: A hydroxyprostaglandin dehydrogenase inhibition screening biochemical assay can be performed to assess the synthesized inhibitors provided herein. Provided herein is an exemplary biochemical assay for hPGDH inhibitor screening.
The in vitro biochemical assay can be performed in white, 384 plates in total 20 μl reaction volume consisting of 10 nM of 15-PGDH/HPGD (R&D System #5660-DH), 15 μM Prostaglandin E2 (Sigma, C8 t #P5640-10 MG) and 0.25 mM β-Nicotinamide adenine dinucleotide sodium salt (Sigma, C8 t #N0632-5G) made in reaction buffer (50 mM Tris-HCl, pH 7.5, 0.01% Tween 20) at 10-point dose response curve for test/tool compounds. Briefly, 5 μl (4×) of compounds solution and 5 μl (final concentration, 10 nM) of enzyme solution is added to white 384 well plates and incubated for 10 mins at 37° C. 5 μl (4×) of […] and 5 μl (4×) of β-Nicotinamide adenine dinucleotide sodium salt is added to the wells and incubated for 10 mins at room temperature. Fluorescence is recorded at ex/em=340 nm/485 nm. The percentage (%) inhibition of enzyme activity was determined relative to positive control (1% DMSO) and IC50 was calculated using GraphPad prism software (four parameter-variable slope equation).

Consider `O=C(c1cnc2c(ccn2-c2ccc3nc(N4CCOCC4)nn3c2)c1)N1CCC(F)(F)CC1` [Compound B-97, (4,4-difluoropiperidin-1-yl)(1-(2-morpholino [1,2,4]triazolo [1,5-a]pyridin-6-yl)-1H-pyrrolo [2,3-b]pyridin-5-yl)methanone], for which, at 15-PGDH, the “PGE2 - HTRF over IL-β induction at 0.001 μM” value was determined as 1.08, the “PGE2 - HTRF over IL-β induction at 0.01 μM” value was found to be 2.42, the “PGE2 - HTRF over IL-β induction at 0.1 μM” value is given as 4.98 and the “PGE2 - HTRF over IL-β induction at 1 μM” value turned out to be 5.37.

In the case of `C[C@H]1CCCN(C(=O)c2cnc3c(ccn3-c3cnn(CC(F)(F)F)c3)c2)C1` [Compound B-100], at 15-PGDH, the “PGE2 - HTRF over IL-β induction at 0.001 μM” value is on record as 0.79, the “PGE2 - HTRF over IL-β induction at 0.01 μM” value is given as 1.78, the “PGE2 - HTRF over IL-β induction at 0.1 μM” value was 4.49 and the “PGE2 - HTRF over IL-β induction at 1 μM” value was 5.26.

`Cc1cn2cc(-n3ccc4cc(C(=O)N5CCC(F)(F)CC5)cnc43)ccc2n1` [Compound B-103]: at 15-PGDH, the “PGE2 - HTRF over IL-β induction at 0.001 μM” value is 1.15, the “PGE2 - HTRF over IL-β induction at 0.01 μM” value is given as 1.34, the “PGE2 - HTRF over IL-β induction at 0.1 μM” value is listed as 5.1 and the “PGE2 - HTRF over IL-β induction at 1 μM” value turned out to be 6.3.

Take `O=C(c1cnc2c(ccn2-c2ccc(N3C(=O)CCC3=O)cc2)c1)N1CCC(F)(F)CC1` [Compound B-106]: at 15-PGDH, the “PGE2 - HTRF over IL-β induction at 0.001 μM” value is recorded as 0.90, the “PGE2 - HTRF over IL-β induction at 0.01 μM” value turned out to be 0.81, the “PGE2 - HTRF over IL-β induction at 0.1 μM” value was determined as 0.86 and the “PGE2 - HTRF over IL-β induction at 1 μM” value was found to be 2.8.

In the case of `O=C(c1cnc2c(ccn2-c2ccc(-n3cnnc3)cc2)c1)N1CCC(F)(F)CC1` [Compound B-107], on 15-PGDH, the “PGE2 - HTRF over IL-β induction at 0.001 μM” value turned out to be 1.73, the “PGE2 - HTRF over IL-β induction at 0.01 μM” value is listed as 1.31, the “PGE2 - HTRF over IL-β induction at 0.1 μM” value is 2.12 and the “PGE2 - HTRF over IL-β induction at 1 μM” value was found to be 3.51.

Regarding `C[C@H]1CCCN(C(=O)c2cnc3c(ccn3-c3ccc4nc(N(C)C)nn4c3)c2)C1` [Compound B-108], on 15-PGDH, the “PGE2 - HTRF over IL-β induction at 0.001 μM” value is 1.57, the “PGE2 - HTRF over IL-β induction at 0.01 μM” value was found to be 2.98, the “PGE2 - HTRF over IL-β induction at 0.1 μM” value is on record as 3.46 and the “PGE2 - HTRF over IL-β induction at 1 μM” value was 3.26.

Consider `O=C(c1cnc2c(ccn2-c2ccc(N3CCOC3=O)nc2)c1)N1CCCC(F)(F)C1` [Compound B-115], for which, at 15-PGDH, the “PGE2 - HTRF over IL-β induction at 0.001 μM” value is 4.36, the “PGE2 - HTRF over IL-β induction at 0.01 μM” value is recorded as 3.07, the “PGE2 - HTRF over IL-β induction at 0.1 μM” value is reported as 4.92 and the “PGE2 - HTRF over IL-β induction at 1 μM” value is 5.24.

In the case of `O=C(O)c1ccc(-n2ccc3cc(C(=O)N4CCC(F)(F)CC4)cnc32)s1` [Compound B-118], on 15-PGDH, the “PGE2 - HTRF over IL-β induction at 0.001 μM” value worked out at 1.48, the “PGE2 - HTRF over IL-β induction at 0.01 μM” value was 1.55, the “PGE2 - HTRF over IL-β induction at 0.1 μM” value turned out to be 1 and the “PGE2 - HTRF over IL-β induction at 1 μM” value was 1.02.

`C[C@@]1(O)CCCN(C(=O)c2cnc3c(ccn3-c3cccc(-c4nnc[nH]4)c3)c2)C1` [Compound B-244]: at 15-PGDH/HPGD, the IC50 (in general, the concentration at which inhibition is half-maximal) was under 100 nM.

Take `CO[C@@H]1CCCN(C(=O)c2cnc3c(ccn3-c3ccc(-c4nnc[nH]4)c(Cl)c3)c2)C1` [Compound B-245]: the IC50 against 15-PGDH/HPGD is under 100 nM.

With `CO[C@@H]1CCCN(C(=O)c2cnc3c(ccn3-c3ccc(-c4nnc[nH]4)c(F)c3)c2)C1` [Compound B-246], the IC50 against 15-PGDH/HPGD is under 100 nM.

The molecule `CO[C@H]1CCCN(C(=O)c2cnc3c(ccn3-c3ccc(-c4nnc[nH]4)c(F)c3)c2)C1` [Compound B-247] came in with an IC50 against 15-PGDH/HPGD of under 100 nM.

Molecule `C[C@]1(O)CCCN(C(=O)c2cnc3c(ccn3-c3ccc(-c4nnc[nH]4)cc3)c2)C1` [Compound B-248] returned an IC50 against 15-PGDH/HPGD of under 100 nM.

In turn, `C[C@]1(O)CCCN(C(=O)c2cnc3c(ccn3-c3cccc(-c4nnc[nH]4)c3)c2)C1` [Compound B-249] came in with an IC50 on 15-PGDH/HPGD of under 100 nM.

On 15-PGDH/HPGD, `CO[C@H]1CCCN(C(=O)c2cnc3c(ccn3-c3cc(Cl)cc(-c4nnc[nH]4)c3)c2)C1` [Compound B-250] gave an IC50 of under 100 nM.

In the case of `O=C(c1cnc2c(ccn2-c2cc(Cl)cc(-c3nnc[nH]3)c2)c1)N1CCSCC1` [Compound B-251], the IC50 against 15-PGDH/HPGD is under 100 nM.

`CO[C@H]1CCCN(C(=O)c2cnc3c(ccn3-c3ccc(-c4nnc[nH]4)c(Cl)c3)c2)C1` [Compound B-252]: the IC50 on 15-PGDH/HPGD is under 100 nM.

In turn, `O=C(c1cnc2c(ccn2-c2ccc(-c3nnc[nH]3)c(Cl)c2)c1)N1CCSCC1` [Compound B-253] came in with a 50% inhibitory concentration (IC50) against 15-PGDH/HPGD of under 100 nM.

`O=C(c1cnc2c(ccn2-c2ccc(-c3nnc[nH]3)c(F)c2)c1)N1CCSCC1` [Compound B-254] showed an IC50 at 15-PGDH/HPGD of under 100 nM.

`Cc1cc(-n2ccc3cc(C(=O)N4CCC(F)(F)CC4)cnc32)ccc1-c1nnc[nH]1` [Compound B-255] returned an IC50 against 15-PGDH/HPGD of under 100 nM.

On to `CC(C)OC(=O)Nc1cncc(-n2ccc3cc(C(=O)N4CCSCC4)cnc32)c1` [Compound B-256], for which the IC50 at 15-PGDH/HPGD is under 100 nM.

Take `O=C(c1cnc2c(ccn2-c2cc(Cl)cc(-c3nnc[nH]3)c2)c1)N1CC[S+]([O-])CC1` [Compound B-257]: at 15-PGDH/HPGD, the IC50 was under 100 nM.

Turning to `CC1(O)CCCN(C(=O)c2cnc3c(ccn3-c3ccc(-c4nnc[nH]4)c(Cl)c3)c2)C1` (centres unmarked) [Compound B-258], the IC50 on 15-PGDH/HPGD was under 100 nM.

Regarding `O=C(c1cnc2c(ccn2-c2cccc(-c3nnc[nH]3)c2)c1)N1CCC[C@H](O)C1` [Compound B-260], on 15-PGDH/HPGD, the IC50 was under 100 nM.

For the molecule `O=C(c1cnc2c(ccn2-c2ccc(-c3nnc[nH]3)c(Cl)c2)c1)N1CC[S+]([O-])CC1` [Compound B-261], at 15-PGDH/HPGD, the IC50 lay within 100 to 1000 nM.

At 15-PGDH/HPGD, `COc1cc(-c2nnc[nH]2)cc(-n2ccc3cc(C(=O)N4CCC(F)(F)CC4)cnc32)c1` [Compound B-263] came in with an IC50 of under 100 nM.

Molecule `O=C(c1cnc2c(ccn2-c2cc(Cl)cc(-c3nnc[nH]3)c2)c1)N1CCC[C@H](O)C1` [Compound B-265] came in with an IC50 against 15-PGDH/HPGD of under 100 nM.

For the molecule `COc1cc(-n2ccc3cc(C(=O)N4CCC(F)(F)CC4)cnc32)ccc1-c1nnc[nH]1` [Compound B-266], the IC50 against 15-PGDH/HPGD was under 100 nM.

On 15-PGDH/HPGD, `O=C(c1cnc2c(ccn2-c2ccc(-c3nnc[nH]3)cc2F)c1)N1CCC(F)(F)CC1` [Compound B-267] had an IC50 of under 100 nM.

In turn, `O=C(c1cnc2c(ccn2-c2ccc(-c3nnc[nH]3)c(F)c2)c1)N1CC[S+]([O-])CC1` [Compound B-268] had an IC50 on 15-PGDH/HPGD of under 100 nM.

`O=C(c1cnc2c(ccn2-c2cccc(-c3ncc[nH]3)c2)c1)N1CCC[C@@H](O)C1` [Compound B-269] yielded an IC50 against 15-PGDH/HPGD of under 100 nM.

On 15-PGDH/HPGD, `Cc1cc(-n2ccc3cc(C(=O)N4CCC(F)(F)CC4)cnc32)ccc1C(=O)O` [Compound B-270] returned an IC50 of under 100 nM.

With `Cc1ccc(-c2nnc[nH]2)cc1-n1ccc2cc(C(=O)N3CCC(F)(F)CC3)cnc21` [Compound B-271], the IC50 on 15-PGDH/HPGD is under 100 nM.

`O=C(c1cnc2c(ccn2-c2cc(-c3nnc[nH]3)ccc2F)c1)N1CCC(F)(F)CC1` [Compound B-272] gave an IC50 against 15-PGDH/HPGD of under 100 nM.

On to `N#Cc1cc(-n2ccc3cc(C(=O)N4CCC(F)(F)CC4)cnc32)ccc1-c1nnc[nH]1` [Compound B-273], for which the IC50 against 15-PGDH/HPGD was under 100 nM.

Molecule `N#Cc1cc(-c2nnc[nH]2)cc(-n2ccc3cc(C(=O)N4CCC(F)(F)CC4)cnc32)c1` [Compound B-274] returned an IC50 against 15-PGDH/HPGD of under 100 nM.

`CCOC(=O)Nc1cncc(-n2ccc3cc([S+]([O-])C4CC4)cnc32)c1` (centres unmarked) [Compound B-315] gave an IC50 on 15-PGDH/HPGD of under 100 nM.

`CCOC(=O)Nc1cncc(-n2ccc3cc([S+]([O-])C4CCCC4)cnc32)c1` (centres unmarked) [Compound B-316] had an IC50 on 15-PGDH/HPGD of under 100 nM.
